In paper PMC10343225, “Investigating the Vital Role of the Identified Abietic Acid from Helianthus annuus L. Calathide Extract against Hyperuricemia via Human Embryonic Kidney 293T Cell Model” (Molecules, 2023):

Molecular target: T1, xanthine oxidase (XO) (Bos taurus, UniProt P80457)
T1 construct: gene XDH
Assay: spectrophotometric xanthine oxidase assay, uric acid formation at […] nm (XO from Roche)
Assay type: biochemical

T1 sequence (P80457 2-1332): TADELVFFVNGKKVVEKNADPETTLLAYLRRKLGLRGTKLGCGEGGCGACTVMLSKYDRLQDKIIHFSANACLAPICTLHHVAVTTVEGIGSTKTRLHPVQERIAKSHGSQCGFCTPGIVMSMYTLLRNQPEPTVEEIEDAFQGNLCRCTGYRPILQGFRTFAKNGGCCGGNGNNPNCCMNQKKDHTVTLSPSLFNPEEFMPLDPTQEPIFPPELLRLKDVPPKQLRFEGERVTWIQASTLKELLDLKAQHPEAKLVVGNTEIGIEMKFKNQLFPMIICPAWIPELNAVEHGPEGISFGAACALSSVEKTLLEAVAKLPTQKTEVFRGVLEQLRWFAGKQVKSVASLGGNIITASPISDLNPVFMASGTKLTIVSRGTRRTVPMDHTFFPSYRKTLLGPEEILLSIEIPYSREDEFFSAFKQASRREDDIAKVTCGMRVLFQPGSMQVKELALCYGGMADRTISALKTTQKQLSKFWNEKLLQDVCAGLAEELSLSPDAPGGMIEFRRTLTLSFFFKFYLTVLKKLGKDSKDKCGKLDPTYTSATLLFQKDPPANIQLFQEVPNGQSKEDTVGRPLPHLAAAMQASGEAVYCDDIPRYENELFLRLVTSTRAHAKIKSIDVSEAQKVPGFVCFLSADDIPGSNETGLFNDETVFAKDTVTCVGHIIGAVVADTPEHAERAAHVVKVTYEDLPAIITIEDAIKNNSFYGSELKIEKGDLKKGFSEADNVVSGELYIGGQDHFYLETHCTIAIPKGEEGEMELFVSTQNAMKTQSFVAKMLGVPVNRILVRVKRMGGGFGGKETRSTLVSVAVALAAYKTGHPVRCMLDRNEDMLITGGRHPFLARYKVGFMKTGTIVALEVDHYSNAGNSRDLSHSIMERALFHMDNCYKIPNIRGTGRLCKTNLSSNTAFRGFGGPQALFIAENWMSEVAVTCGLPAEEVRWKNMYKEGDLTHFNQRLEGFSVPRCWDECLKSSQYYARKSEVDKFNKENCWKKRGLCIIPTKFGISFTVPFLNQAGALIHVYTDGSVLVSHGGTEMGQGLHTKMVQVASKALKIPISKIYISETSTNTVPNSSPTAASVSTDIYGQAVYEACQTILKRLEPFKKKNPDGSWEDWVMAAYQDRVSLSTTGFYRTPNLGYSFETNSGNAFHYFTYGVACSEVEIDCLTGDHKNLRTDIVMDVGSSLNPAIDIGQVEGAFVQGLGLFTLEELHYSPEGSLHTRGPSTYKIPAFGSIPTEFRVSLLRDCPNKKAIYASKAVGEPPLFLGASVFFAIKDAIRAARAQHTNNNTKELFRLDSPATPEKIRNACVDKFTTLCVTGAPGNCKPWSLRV

Work on `CC(C)C1=CC2=CC[C@@H]3[C@](C)(CCC[C@@]3(C)C(=O)O)[C@H]2CC1` [AA, abietic acid] yielded an IC50 of 10.6 µM.
